pEC50: −log10 of the molar value.
Target: T1, Bile acid receptor (Homo sapiens, UniProt Q96RI1)
T1 sequence (Q96RI1 whole entry): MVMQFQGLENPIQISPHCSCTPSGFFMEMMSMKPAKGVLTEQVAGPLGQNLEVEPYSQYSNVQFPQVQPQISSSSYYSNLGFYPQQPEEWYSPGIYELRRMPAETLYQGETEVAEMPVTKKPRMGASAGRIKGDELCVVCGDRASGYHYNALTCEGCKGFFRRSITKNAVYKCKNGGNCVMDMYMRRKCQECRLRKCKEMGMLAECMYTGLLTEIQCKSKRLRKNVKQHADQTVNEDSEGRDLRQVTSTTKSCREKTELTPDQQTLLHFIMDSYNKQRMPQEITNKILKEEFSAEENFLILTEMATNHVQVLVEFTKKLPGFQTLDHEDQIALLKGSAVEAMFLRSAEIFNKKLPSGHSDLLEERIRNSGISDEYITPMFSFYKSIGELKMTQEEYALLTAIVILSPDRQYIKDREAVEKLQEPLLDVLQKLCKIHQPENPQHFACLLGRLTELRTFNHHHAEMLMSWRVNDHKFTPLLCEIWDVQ
Assay: HTRF Coactivator Recruitment Assay
Conditions: pH 7; 4 °C
Procedure: To each well of a 96-well assay plate, assay buffer was added containing purified GST-FXR, Eu-labeled anti-GST antibody (Perkin-Elmer), streptavidin-XL665 (Packard Instruments), biotin-tagged SRC-1 fragment. The binding reaction was initiated by the addition of compound.

SMILES | pEC50
C[C@]12CCC(C(=O)O)=CC1=CCC1C2CC[C@@]2(C)C1CC[C@@H]2C(=O)c1ccc(O)cc1 (some centres not stated) [MFA-1] | 7.77
C[C@]12CCC(C(=O)O)=CC1=CCC1C2CC[C@@]2(C)C1CC[C@@H]2C(=O)c1ccccc1 (some centres not stated) [MFA-2] | 6.29
